Calls of active or inactive are those of the source. The rule behind the calls is not given here.
Biological target: Eukaryotic translation initiation factor 4E (Mus musculus) + Eukaryotic translation initiation factor 4 gamma 1 (Homo sapiens) (UniProt P63073+Q04637)
Assay: blockers of eIF4G binding by eIF4E – biochemical, TR-FRET, dose response (AID 855)
Conditions: TR-FRET 665/620 nm; for percent of control, lower = inhibition: at 64 µM (top of the series)

Sequence of Eukaryotic translation initiation factor 4E (Mus musculus) + Eukaryotic translation initiation factor 4 gamma 1 (Homo sapiens) (P63073 whole entry, looked up): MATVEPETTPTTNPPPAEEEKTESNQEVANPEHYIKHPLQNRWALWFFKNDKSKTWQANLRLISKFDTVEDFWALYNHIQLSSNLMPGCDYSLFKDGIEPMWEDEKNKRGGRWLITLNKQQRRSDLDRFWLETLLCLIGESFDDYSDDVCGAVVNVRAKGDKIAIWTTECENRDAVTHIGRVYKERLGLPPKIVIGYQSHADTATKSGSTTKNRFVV
Sequence of Eukaryotic translation initiation factor 4E (Mus musculus) + Eukaryotic translation initiation factor 4 gamma 1 (Homo sapiens) (Q04637 whole entry, looked up): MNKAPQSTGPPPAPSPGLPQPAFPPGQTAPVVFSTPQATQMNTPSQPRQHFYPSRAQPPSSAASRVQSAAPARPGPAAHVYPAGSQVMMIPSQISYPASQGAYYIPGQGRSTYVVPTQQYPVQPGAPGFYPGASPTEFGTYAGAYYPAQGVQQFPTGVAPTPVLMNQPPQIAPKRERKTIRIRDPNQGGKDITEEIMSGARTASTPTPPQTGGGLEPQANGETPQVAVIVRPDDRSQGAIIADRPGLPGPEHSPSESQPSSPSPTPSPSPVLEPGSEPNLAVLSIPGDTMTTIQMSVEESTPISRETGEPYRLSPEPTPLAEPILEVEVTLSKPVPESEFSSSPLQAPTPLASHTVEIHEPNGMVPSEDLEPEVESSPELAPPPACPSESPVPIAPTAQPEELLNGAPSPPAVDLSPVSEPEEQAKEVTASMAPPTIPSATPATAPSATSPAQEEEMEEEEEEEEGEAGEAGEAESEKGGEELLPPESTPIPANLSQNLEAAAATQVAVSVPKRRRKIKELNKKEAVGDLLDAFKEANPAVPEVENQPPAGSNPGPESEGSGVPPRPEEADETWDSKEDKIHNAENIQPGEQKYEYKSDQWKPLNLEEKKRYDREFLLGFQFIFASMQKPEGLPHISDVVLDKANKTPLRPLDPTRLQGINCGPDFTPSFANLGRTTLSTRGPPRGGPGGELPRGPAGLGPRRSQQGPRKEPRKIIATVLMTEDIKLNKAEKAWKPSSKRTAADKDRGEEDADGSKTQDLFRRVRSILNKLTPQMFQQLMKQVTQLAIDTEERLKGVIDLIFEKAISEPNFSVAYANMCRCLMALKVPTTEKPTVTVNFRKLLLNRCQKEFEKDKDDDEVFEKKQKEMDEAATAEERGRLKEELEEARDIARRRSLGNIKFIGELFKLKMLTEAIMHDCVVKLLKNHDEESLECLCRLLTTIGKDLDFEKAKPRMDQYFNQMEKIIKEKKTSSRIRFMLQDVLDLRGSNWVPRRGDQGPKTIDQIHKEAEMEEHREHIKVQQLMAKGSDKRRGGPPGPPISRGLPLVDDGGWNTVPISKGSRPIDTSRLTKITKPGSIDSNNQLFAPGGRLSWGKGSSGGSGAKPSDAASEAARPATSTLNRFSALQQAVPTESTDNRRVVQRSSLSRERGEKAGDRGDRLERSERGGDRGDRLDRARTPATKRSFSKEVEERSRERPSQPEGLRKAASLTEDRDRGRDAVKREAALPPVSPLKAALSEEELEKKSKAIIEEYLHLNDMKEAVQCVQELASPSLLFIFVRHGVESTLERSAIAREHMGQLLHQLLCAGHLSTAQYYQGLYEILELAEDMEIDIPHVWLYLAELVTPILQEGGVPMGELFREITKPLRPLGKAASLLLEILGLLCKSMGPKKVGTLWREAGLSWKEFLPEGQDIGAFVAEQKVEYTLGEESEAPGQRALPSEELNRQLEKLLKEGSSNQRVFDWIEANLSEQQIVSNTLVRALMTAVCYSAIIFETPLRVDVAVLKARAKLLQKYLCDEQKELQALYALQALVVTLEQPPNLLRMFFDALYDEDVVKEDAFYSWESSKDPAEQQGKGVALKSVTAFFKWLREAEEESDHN

Structure (SMILES): CC(=O)Nc1ccc(S(=O)(=O)NNC(=O)COc2cccc(C)c2)cc1
- percent of control, lower = inhibition: inactive

Structure (SMILES): CCOC(=O)c1ccccc1NC(=O)Cn1cnc2c(nnn2-c2ccc(C)cc2)c1=O
- percent of control, lower = inhibition: inactive

Structure (SMILES): COc1c(Cl)cc(-c2noc(C)c2C(=O)NC(C)C)cc1Cl
- percent of control, lower = inhibition: inactive

Structure (SMILES): O=C(/N=C1\NC(=O)C(F)(C(F)(F)F)S1)NC1CCCCC1 (stereo not given)
- percent of control, lower = inhibition: inactive

Structure (SMILES): COc1ccc(C(=O)Nc2ccc3oc(Cc4ccc(Cl)cc4)nc3c2)cc1OC
- percent of control, lower = inhibition: inactive

Structure (SMILES): C=CCNC(=O)COc1cc(C)ccc1C
- percent of control, lower = inhibition: inactive

Structure (SMILES): Cc1cc(NC(=O)CSc2ccccc2)no1
- percent of control, lower = inhibition: inactive

Structure (SMILES): CN1CCCN(Cc2ccccc2C(F)(F)F)CC1
- percent of control, lower = inhibition: inactive

Structure (SMILES): O=C(N/N=C/c1ccccc1O)c1cc(=O)[nH]c2ccccc12
- percent of control, lower = inhibition: inactive

Structure (SMILES): CCC(C(=O)NC(C)CCc1ccco1)n1nc(C)n2c(cc3occc32)c1=O (stereo not given)
- percent of control, lower = inhibition: inactive

Structure (SMILES): Cc1nn(CCC#N)c2c1P(=S)(N1CCCC1)OC(c1ccc(F)cc1)=N2 (stereo not given)
- percent of control, lower = inhibition: inactive

Structure (SMILES): CC(=O)Nc1ccnc(-c2cccnc2)n1
- percent of control, lower = inhibition: inactive

Structure (SMILES): O=C(CSCC(=O)Nc1ccc2ccccc2c1)NCc1ccccc1
- percent of control, lower = inhibition: inactive

Structure (SMILES): O=C1CC(c2ccco2)CC(O)=C1C=Nc1cc(Cl)cc(Cl)c1 (stereo not given)
- IC50: > 64 µM (inactive)

Structure (SMILES): CCOC(=O)c1c(NC(=O)c2cc(-c3ccc(O)cc3)on2)sc(C(C)=O)c1C
- percent of control, lower = inhibition: inactive

Structure (SMILES): CCNC(=O)c1ccc(CSc2ccc(Cl)cc2)cc1
- percent of control, lower = inhibition: inactive

Structure (SMILES): O=C(Nc1nnc(C23CC4CC(CC(C4)C2)C3)s1)c1ccc(N2C(=O)CCC2=O)cc1
- percent of control, lower = inhibition: inactive

Structure (SMILES): COc1cc(CC(=O)Nc2ccc3c(c2)CCC3)cc(OC)c1OC
- percent of control, lower = inhibition: inactive

Structure (SMILES): CCN(CC)S(=O)(=O)c1ccc(Cl)c(C(=O)Oc2cccnc2)c1
- percent of control, lower = inhibition: inactive

Structure (SMILES): N#C/C(=C\c1sc(N2CCOCC2)nc1-c1ccccc1)C(=O)Nc1cccc2ccccc12
- percent of control, lower = inhibition: inactive

Structure (SMILES): Cc1[nH]n(-c2ccccc2)c(=S)c1C=Nc1cccc([N+](=O)[O-])c1
- percent of control, lower = inhibition: inactive

Structure (SMILES): CCOC(=O)C(C)n1ncn2cccc2c1=O (stereo not given)
- percent of control, lower = inhibition: inactive

Structure (SMILES): O=C(OCCN1C(=O)c2cccc3c(N4CCOCC4)ccc(c23)C1=O)c1cc(Cl)cc(Cl)c1
- percent of control, lower = inhibition: inactive

Structure (SMILES): CCOc1ccc(-c2nc(=S)[nH][nH]2)cc1
- percent of control, lower = inhibition: inactive

Structure (SMILES): CCn1c(C2CC(=O)N(Cc3ccccc3)C2)nc2ccccc21 (stereo not given)
- percent of control, lower = inhibition: inactive

Structure (SMILES): CCn1c2ccccc2c2nc3cc(S(=O)(=O)N4CCOCC4)ccc3nc21
- percent of control, lower = inhibition: inactive

Structure (SMILES): Cc1noc(C)c1CSc1nc2cc(S(=O)(=O)N3CCOCC3)ccc2o1
- percent of control, lower = inhibition: inactive

Structure (SMILES): CCN=C(N/N=C/c1ccc([N+](=O)[O-])cc1)SC
- percent of control, lower = inhibition: inactive

Structure (SMILES): O=C(NC1CCCC1)c1cnc2n(c1=O)CCS2
- percent of control, lower = inhibition: inactive

Structure (SMILES): O=C(CCn1[nH]c(=O)c2ccccc2c1=O)NCCO
- percent of control, lower = inhibition: inactive
